{"source": "paper PMC10348910", "about": "“Epigenetic reprogramming of cell cycle genes by ACK1 promotes breast cancer resistance to CDK4/6 inhibitor” (Oncogene, 2023)", "key": {"[1]": {"tested_on": "78 targets (cell surface receptors, ion channels, kinases, nuclear hormone receptors, GPCRs and other relevant enzymes)", "experiment": "DiscoverX SAFETYscan pharmacological profiling (78 assays)", "text": "We performed pharmacological profiling of (R)-9b, to identify undesirable off-target activity profile using DiscoverX SAFETYscan, which has a broad menu containing 78 assays, and provides functional data for cell surface receptors, ion channels, kinases, nuclear hormone receptors, GPCRs and other relevant enzymes, inhibition of which could cause significant toxicity in human clinical trials."}, "BT549": {"tested_on": "BT549", "experiment": "proliferation assay, trypan blue exclusion", "type": "cell-based", "conditions": "BT549 (lacking Rb), 96 h", "method": "(§1) A–F Breast cancer cells were treated with either vehicle or (R)-9b for 48 h; cells were harvested and processed for cell cycle analysis using propidium iodide staining, followed by flow cytometry. G BT549 and H MDA-MB-468 cells were treated with varying drug concentrations of palbociclib or (R)-9b for 96 h and the cell viability assessed using trypan blue exclusion method. I BT549, and J MDA-MB-468 cells were treated with 1 µM palbociclib or (R)-9b for 48 h and subjected to cell cycle analysis using propidium iodide staining, followed by flow-cytometry. Palbociclib-resistant MDA-MB-231 (K) and HCC-1395 (L) were generated and treated with varying drug concentrations of palbociclib or (R)-9b for 96 h and the cell viability assessed using trypan blue exclusion method.\n(§2) For proliferation assay, 5 × 10^4 cells were plated in 6-well plate and treated with either vehicle (DMSO) or varying concentrations of (R)-9b or palbociclib in complete media for 96 h and number of viable cells were counted by trypan blue exclusion assay. Breast cancer cell lines were treated with vehicle or varying concentrations of (R)-9b for 72 h. The cells were harvested, washed 2 times with PBS and incubated with 3 ul of Annexin V-FITC antibody according to the manufacturers protocol (BD Biosciences). Five µl Propidium iodide was used to stain necrotic cells. The cells were acquired using the BD FACSCalibur machine (BD Biosciences) and data was analyzed using FlowJo software. Cell cycle analysis was performed as mentioned earlier. Briefly, vehicle or (R)-9b (48 h) treated cells were harvested by trypsinization, washed 2 times with PBS, and fixed using chilled 70% Ethanol for 1 h, followed by 2 washes with PBS. The cell pellets were treated with 50 µl RNase A (100 µg/ml; Sigma) for 15 min at 37 °C and Propidium Iodide (PI; 50 µg/ml, Sigma) was added to these cells, followed by acquisition using BD FACS Canto-II or FACSCalibur machines. The data were analyzed using FlowJo software."}, "MDA-MB-468": {"tested_on": "MDA-MB-468", "experiment": "proliferation assay, trypan blue exclusion", "type": "cell-based", "conditions": "MDA-MB-468 (lacking Rb), 96 h", "method": "as §1, §2"}, "[2]": {"tested_on": "CCNB1, CCNB2 and CDC20 mRNA", "experiment": "qRT-PCR of CCNB1, CCNB2 and CDC20 in breast cancer cells", "type": "cell-based", "conditions": "MCF7, MDA-MB-453, SKBR3 and HCC-1395 cells; overnight", "method": "Fig. 2 ACK1 regulates breast cancer transcriptome, affecting genes implicated in cell cycle progression. A Chemical structure of (R)-9b. B Breast cancer cell lines were treated with either vehicle or (R)-9b overnight and cell lysates were subjected to immunoprecipitation using ACK1 antibody, followed by immunoblotting with pY284-ACK1 antibody. Lysates were also subjected to immunoblotting with total ACK1 and Actin antibodies, shown in the lower panels. […] C Breast cancer cell lines were treated with varying concentrations of (R)-9b for 96 h and the cell proliferation was measured using Trypan Blue exclusion method. D–H RNA from breast cancer cells treated with vehicle or varying concentrations of (R)-9b overnight, and were subjected to qRT-PCR using CCNB1, CCNB2 and CDC20 primers. Actin or 18S rRNA was used as housekeeping control. For (B), representative images of three independent experiments are shown. For (C), a four parameter, variable slope, non-linear regression curve was computed, representing three independent experiments. […]\nReal-time quantitative PCR analyses were performed using the ABI PRISM 7900HT Sequence Detection System (Applied Biosystems) as described earlier. […] Data were analyzed using SDS software version 2.2.2 and exported into an Excel spreadsheet. […]"}, "pY88-H4": {"tested_on": "pY88-H4", "experiment": "immunoprecipitation and immunoblotting for pY88-H4", "type": "cell-based", "conditions": "breast cancer cell lines; overnight", "method": "Fig. 4 ACK1 epigenetically modifies the chromatin landscape by depositing pY88-H4 activating marks, regulating cell cycle genes. A Breast cancer cell lines were treated with (R)-9b overnight and the cell lysates were subjected to immunoprecipitation using pY88-H4 antibody, followed by immunoblotting with H4 antibody. Lysates were also subjected to immunoblotting with total H4 and Actin antibodies, shown in the lower panels. […] B Venn diagrams summarizing the overlap between sites bound by pY88-H4 in vehicle treated and (R)-9b treated MDA-MB-453 cells. […] Breast cancer cells were subjected to ChIP using pY88-H4 antibody followed by qPCR for (D) CCNB1, (E) CCNB2, and (F) CDC20 genes. For (A), representative images of three independent experiments are shown. For (D–F), data are represented as the mean ± SEM. *p < 0.05, **p < 0.01, ***p < 0.001, unpaired two-tailed Student’s t test.\nVehicle or (R)-9b (5 µM, overnight in serum free media) treated cells were lysed by sonication in receptor lysis buffer (RLB) and lysates were fractionated by SDS-PAGE, and transferred onto a PVDF membrane (Immobilon). […]"}}}
{"smiles": "CN1CCN(c2ccc(Nc3ncc(Cl)c(NC[C@H]4CCCO4)n3)cc2)CC1", "note": "[(R)-9b]", "values": [{"measurement": "off-target inhibition in SAFETYscan", "setting": "[1]", "result": "None of the 78 targets were inhibited significantly"}, {"measurement": "sensitivity (cell proliferation)", "setting": "BT549", "result": "sensitive"}, {"measurement": "sensitivity (cell proliferation)", "setting": "MDA-MB-468", "result": "sensitive"}, {"measurement": "CCNB1, CCNB2 and CDC20 mRNA transcripts", "setting": "[2]", "result": "significant downregulation"}, {"measurement": "pY88-H4 epigenetic marks (immunoblot)", "setting": "pY88-H4", "result": "significantly compromised"}]}
